Reference: US9321772B2, “Substituted pyrazolo[3,4-D]pyrimidines and uses thereof” (The Regents of the University of California, priority 2011, dated 2016)
Entries after “also recorded” stand apart in the source; their conditions may differ.

What was measured:
[1] = biological target: T1, Ret kinase domain (Homo sapiens, UniProt P07949); assay: In vitro kinase assay, Ret; assay type: biochemical
T1 construct: determined against a purified form of the Ret kinase domain
T1 sequence (P07949 724-1016 limits assumed): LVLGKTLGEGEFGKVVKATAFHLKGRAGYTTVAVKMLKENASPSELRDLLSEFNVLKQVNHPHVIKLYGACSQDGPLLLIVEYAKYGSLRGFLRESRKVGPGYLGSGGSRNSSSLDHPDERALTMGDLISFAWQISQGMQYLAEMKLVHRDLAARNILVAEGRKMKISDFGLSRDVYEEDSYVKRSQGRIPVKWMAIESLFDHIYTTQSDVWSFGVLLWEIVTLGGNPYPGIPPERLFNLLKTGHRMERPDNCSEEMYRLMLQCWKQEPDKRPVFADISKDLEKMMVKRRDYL
Protocol: FIG. 1D. […] Half maximal inhibitory concentrations (IC50) were determined against a purified form of the Ret kinase domain.
(§1) Using in vitro kinase assays we tested AD57, AD36, and AD58 at 1 μM for activity against approximately one-half of the human kinome (FIG. 1E): 165 Ser/Thr kinases, 91 Tyr kinases, and 10 PI kinases were assayed, totaling 266 kinases (244 distinct kinases plus 22 mutant isoforms; see FIG. 6A-6C, FIG. 7A-7F, and FIG. 8 for measured inhibition values).
At least three major pathways are required for dRet^MEN2B-mediated transformation: Ras, Src, and glucose metabolism/PI3K (FIG. 3A; Ref (Read, R. D. et al., Genetics, 2005. 171(3): p. 1057-81)). We utilized in vitro kinase assays to assess compound activity against relevant kinases from each of these pathways, specifically Ret, B-Raf, Src, Tor, and S6K (FIG. 3B).

[2] = biological target: EGFR (T790M) (Homo sapiens, UniProt P00533, T790M); assay: In vitro kinase assay, EGFR gatekeeper mutant; assay type: biochemical; conditions: 1 μM
EGFR (T790M), sequence (P00533 25-1210 T790M): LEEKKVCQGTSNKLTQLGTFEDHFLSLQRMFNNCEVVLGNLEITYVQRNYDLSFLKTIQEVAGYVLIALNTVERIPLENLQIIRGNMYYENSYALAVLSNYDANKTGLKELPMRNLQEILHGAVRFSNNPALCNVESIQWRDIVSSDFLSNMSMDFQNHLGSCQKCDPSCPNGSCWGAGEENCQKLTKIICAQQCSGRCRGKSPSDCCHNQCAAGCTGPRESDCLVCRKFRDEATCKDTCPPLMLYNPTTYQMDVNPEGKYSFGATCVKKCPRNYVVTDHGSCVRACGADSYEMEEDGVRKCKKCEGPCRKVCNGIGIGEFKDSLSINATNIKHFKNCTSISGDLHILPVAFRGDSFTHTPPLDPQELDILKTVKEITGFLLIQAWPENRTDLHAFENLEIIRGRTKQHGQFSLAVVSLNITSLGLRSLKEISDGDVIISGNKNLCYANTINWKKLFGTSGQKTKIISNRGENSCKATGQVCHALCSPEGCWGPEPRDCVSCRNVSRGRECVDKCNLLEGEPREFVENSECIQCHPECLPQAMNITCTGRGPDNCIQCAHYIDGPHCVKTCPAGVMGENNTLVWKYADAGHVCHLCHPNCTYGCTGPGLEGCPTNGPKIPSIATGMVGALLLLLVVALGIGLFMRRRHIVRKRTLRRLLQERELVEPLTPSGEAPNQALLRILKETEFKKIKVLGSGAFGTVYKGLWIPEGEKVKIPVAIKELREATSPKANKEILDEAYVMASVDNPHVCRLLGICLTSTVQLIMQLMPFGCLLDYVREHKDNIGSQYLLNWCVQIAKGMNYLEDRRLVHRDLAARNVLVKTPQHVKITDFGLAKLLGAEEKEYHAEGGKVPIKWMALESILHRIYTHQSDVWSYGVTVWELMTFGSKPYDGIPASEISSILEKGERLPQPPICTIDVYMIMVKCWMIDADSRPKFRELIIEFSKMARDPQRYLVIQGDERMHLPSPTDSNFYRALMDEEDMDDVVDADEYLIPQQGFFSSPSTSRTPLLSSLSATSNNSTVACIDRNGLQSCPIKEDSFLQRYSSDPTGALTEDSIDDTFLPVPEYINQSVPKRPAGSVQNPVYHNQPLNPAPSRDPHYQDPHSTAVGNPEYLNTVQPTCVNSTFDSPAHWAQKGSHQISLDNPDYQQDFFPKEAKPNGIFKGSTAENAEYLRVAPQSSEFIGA
Protocol: FIG. 10F. Selectivity profiles for a subset of kinases. The gatekeeper mutant alleles of RET, ABL1, and EGFR are V804L, T315I and T790M, respectively.
as §1

[3] = test system: MZ-CRC-1 (MEN2B) cancer cell line; assay: MZ-CRC-1 cell viability (MTT assay); assay type: cell-based, human
[4] = test system: MEN2A (TT) thyroid cancer cells; assay: Immunoblot analysis of drug-treated TT cells; assay type: cell-based, human; conditions: for phospho-Ret and downstream biomarkers: 1 hour of treatment; for cell death (protein markers of apoptosis): 3 days, 2 μM
Protocol: FIG. 19. […] MEN2A (TT) and MEN2B (MZ) thyroid cancer cells were treated with the indicated drugs for 3 days at a final concentration of 2 μM. Cell lystates were immunoblotted for protein markers of apoptosis. Vandetanib (vand.) was included for comparison.
FIG. 20A-20B. […] FIG. 20A. MEN2B (MZ) and FIG. 20B. MEN2A (TT) thyroid cancer cells were treated with the indicated concentrations of drug. Following 1 hour of treatment, cells were harvested and lysates prepared for immunoblotting to detect the indicated proteins. VD=vandetanib; SF=sorafenib.

[5] = test system: TT cell tumors in athymic nu/nu mice; assay: MEN2 (TT) mouse xenograft model; assay type: in vivo; conditions: for reduction of tumor progression relative to vehicle: nude mice transplanted with TT cells, oral gavage, median per group; for toxicity as assessed by animal body weights / tumor growth, in words: nude mice with TT tumors, PO administration
Protocol: FIG. 11. […] TT thyroid cancer cells were implanted into athymic nu/nu mice subcutaneously into the right flank under the conditions listed. Upon establishment of tumors, drugs were administered by oral gavage (5 days ON/2 days OFF schedule). Tumors were measured using digital calipers. […] VD=vandetanib.
FIG. 18A-18D. […] FIG. 18A. MEN2B (MZ) thyroid cancer cells were treated with the indicated concentrations of each inhibitor (7 days) and cell viability was quantitated by MTT assay. FIG. 18B. MEN2A (TT) thyroid cancer cells were treated with the indicated concentrations of each inhibitor (7 days) and cell viability was quantitated by MTT assay. FIG. 18C. […] Change in tumor volume was calculated per mouse. Values shown are the median percent change per group. 20 and 10 animals for vehicle and drug treated mice, respectively, were analyzed. FIG. 18D. Body weight measurements of AD80, Vandetanib (VD) and vehicle treated nude mice transplanted with TT cells. Values shown are the median of 20 and 10 animals for vehicle and drug treated mice, respectively.
TT-based tumors were grown for 46 days in athymic nu/nu male mice prior to drug administration.

[6] = Pharmacokinetic profile in murine models; assay type: in vivo, mouse
Source text: In addition to the experiments with AD57 and AD80 in drosophila, we have examined these molecules in murine models of cancer.

[7] = test system: ER4 cells (ER4 subline of HCC827 cells resistant to erlotinib); assay: Apoptosis in ER4 cells (PARP cleavage, BIM induction); assay type: cell-based; conditions: 1 micromolar combined with erlotinib, 24 hour exposure
Protocol: FIG. 22. Induction of apoptosis by combined EGFR and AXL inhibition. ER4 cells (ER4 subline of HCC827 cells that are resistant to erlotinib treatment) plated at 0.5×10^6 cells/condition. 24-hour drug exposure. Apoptosis measured by induction of PARP cleavage and BIM induction. E is erlotinib, AD57 at 1 micromolar, AD80 at 1 micromolar, AD81 at 10 micromolar.

[8] = test system: TPC1 cells; assay: AnnexinV/PI flow cytometry apoptosis assay in TPC1 cells; assay type: cell-based, human
Protocol: FIG. 25. TPC1 cells were grown in 6 well dishes at 70-80% confluence in growth media supplemented with 10% FBS. TPC1 cells were treated with either AD80, the MEK inhibitor PD325901 or a combination of both inhibitors at indicated concentrations for 72 h. Induction of apoptosis was measured using flow cytometry based counting of AnnexinV/PI positive cells.

| SMILES | potency for Ret in vitro ([1]; purified Ret kinase domain) | inhibition of EGFR (T790M) versus wild type [2] | inhibition of MZ-CRC-1 cell viability / proliferation, in words [3] | IC50, fold more potent than Sorafenib ([3]; MZ-CRC-1 cell viability) | phospho-Ret and downstream biomarkers [4] | cell death (protein markers of apoptosis) [4] | reduction of tumor progression relative to vehicle [5] [fold] | toxicity as assessed by animal body weights [5] | tumor growth, in words [5] | pharmacokinetic profile, in words [6] | apoptosis (PARP cleavage, BIM induction) [7] | Ret inhibition, in words ([1]; in vitro kinase profile, 1 μM) | induction of apoptosis (AnnexinV/PI positive cells) ([8]; combination with MEK inhibitor PD325901, 72 h) | induction of apoptosis (AnnexinV/PI positive cells) ([8]; single agent, 72 h) |
| --- | --- | --- | --- | --- | --- | --- | --- | --- | --- | --- | --- | --- | --- | --- |
| CC(C)n1nc(-c2ccc(NC(=O)Nc3cccc(C(F)(F)F)c3)cc2)c2c(N)ncnc21 [AD57] | near equal potency | retained or improved on inhibition | most potent inhibition | approximately 150 fold | potent inhibitors | induce cell death | ~3 | no detectable toxicity | displays antitumor activity; also recorded: significant suppression of tumor growth | pharmacokinetic profiles in a range that is similar to several clinical agents | enhances apoptosis | – | – | – |
| CC(C)n1nc(-c2ccc(NC(=O)Nc3cc(C(F)(F)F)ccc3F)cc2)c2c(N)ncnc21 [AD80] | – | – | inhibited proliferation | – | potent downregulation of phospho-Ret; also recorded: potent inhibitors | induce cell death | 3.1 | reduced body weight modulation relative to Vandetanib | enhanced tumor growth inhibition | pharmacokinetic profiles in a range that is similar to several clinical agents | enhances apoptosis | inhibited | robust induction of apoptosis | does not lead to induction of apoptosis |
